The text below walks through data of patent US20190169134A1, “NOVEL CLASS OF QUINOLONE HETEROCYCLIC AROMATIC MOLECULES FOR CANCER TREATMENT” (RenoTarget Therapeutics, Inc., priority 2016, published 2019).

Holding throughout (format): cell-based, human
The subject of one test is HCC827 P cells. Briefly: Combination analysis of cell growth inhibition (SRB, CalcuSyn). As for the experimental part: (§1) As described in Example 2.1. Two cell lines, HCC827-P and HCC827-TR (Tarceva-resistant HCC727 cells-an EGFRi resistant cell line with MET amplification) (Wang, Pursell et al. 2013) were used in the combination study. Exponentially growing HC[…] and HCC827-TR cells were seeded into 96-wells dishes at density of 3,000 cells per well. Twenty-four hours later, the cells were exposed concurrently to serial dilution of Reno647 or Carboplatin or Camptothecin alone or in combination at a ratio of 1:50 with Carboplatin or at ratio 1:1 with Camptothecin for 3 days. Reno647 were concurrently and sequentially with paclitaxel (Taxol) at ratio of 200:1 for 6 days. For sequential exposure, the cells were treated with Reno647 for 3 days, after removal of the drug containing medium, the cells were treated with Taxol for additional 3 days, or the cells were treated by Taxol first followed by the treatment with Reno 647. After incubation for 6 days, the cell growth was measured by SRB as described previously in Example 2.1 section, and the percentages of inhibition (1-T/C) % were calculated, and data were analyzed by a PC program, CalcuSyn, Biosoft (edited by T.-C. Chou, Memorial Sloan-Kettering Cancer Center, New York, and M. P. Hayball, at Cambridge, UK, 1996). The computer-calculated combination index (CI) was used to judge the outcomes of a combination: […] It has long been accepted that chemotherapy provided some benefit for patients with non-small-cell lung cancer (NSCLC) in terms of quality of life and symptomatology as well as modest improvements in survival. […] Cell growth was determined by SRB as described above. […] Cell growth was determined by SRB as described above. […] (FIG. 5 C&D, CIs were well below 1 at effective concentration), particularly at higher concentration where Reno647 achieves its effective inhibition on […]. […] However, induction of EGFR activation mediated by Taxol may compromise activity of EGFR inhibitors. To examine our hypothesis, Taxol was combined with Reno647 in three different sequential exposures: • Combination 1: exposure of HC[…] or TR cells to Reno647+Taxol simultaneously for 6 days. • Combination 2: exposure of the cells to Reno647 first for 3 days followed by treatment with Taxol for an additional 3 days, or • Combination 3: exposure of the cells to Taxol first for 3 days followed by treatment with Reno647 for an additional 3 days. Exposure of the cells to either Reno647 or Taxol served as controls. After exposure, cell growth was determined by SRB and analyzed as described in above section.

The next test deals with HCC827 TR cells. The test is described as above. The protocol:
as §1

Test [1] deals with HCC827 P and HCC827 TR cells. As to the kind of experiment: Reno647/Carboplatin combination, median effects (SRB, CalcuSyn). The protocol: As described in Example 2.1. Two cell lines, HCC827-P and HCC827-TR (Tarceva-resistant HCC727 cells-an EGFRi resistant cell line with MET amplification) (Wang, Pursell et al. 2013) were used in the combination study. Exponentially growing HC[…] and HCC827-TR cells were seeded into 96-wells dishes at density of 3,000 cells per well. Twenty-four hours later, the cells were exposed concurrently to serial dilution of Reno647 or Carboplatin or Camptothecin alone or in combination at a ratio of 1:50 with Carboplatin or at ratio 1:1 with Camptothecin for 3 days. Reno647 were concurrently and sequentially with paclitaxel (Taxol) at ratio of 200:1 for 6 days. For sequential exposure, the cells were treated with Reno647 for 3 days, after removal of the drug containing medium, the cells were treated with Taxol for additional 3 days, or the cells were treated by Taxol first followed by the treatment with Reno 647. After incubation for 6 days, the cell growth was measured by SRB as described previously in Example 2.1 section, and the percentages of inhibition (1-T/C) % were calculated, and data were analyzed by a PC program, CalcuSyn, Biosoft (edited by T.-C. Chou, Memorial Sloan-Kettering Cancer Center, New York, and M. P. Hayball, at Cambridge, UK, 1996). The computer-calculated combination index (CI) was used to judge the outcomes of a combination: […] It has long been accepted that chemotherapy provided some benefit for patients with non-small-cell lung cancer (NSCLC) in terms of quality of life and symptomatology as well as modest improvements in survival. […] Cell growth was determined by SRB as described above.

The mark [2] stands for this setting: HCC827P, ratio 200:1, 3 days + 3 days.
The mark [3] stands for this setting: HCC827TR, ratio 200:1, 3 days + 3 days.

In the case of `C#Cc1cccc(Nc2ncnc3cc(OCCOC)c(NC(=O)c4ccc(F)c([N+](=O)[O-])c4)cc23)c1` [Reno647, 4-Fluoro-N-[4-(3-ethynyl-phenylamino)-7-(2-methoxy-ethoxy)-quinazolin-6-yl]-3-nitro-benzamide], the “combination index (CI), Reno647 with Camptothecin” value with HCC827 P cells (HCC827 P, ratio 1:1, concurrent, 3 days, at effective concentration) was “below 1”; with HCC827 TR cells (HCC827 TR, ratio 1:1, concurrent, 3 days, at effective concentration), “below 1”. The “combination index (CI), Reno647 with Carboplatin” value is “below 1” in the test with HCC827 P cells (HCC827 P, ratio 1:50, concurrent, 6 days, at effective concentrations) and “below 1” with HCC827 TR cells (HCC827 TR, ratio 1:50, concurrent, 6 days, at effective concentrations). Moreover, the “combination index (CI), Reno647 first followed by Taxol” value with HCC827 P cells (setting [2]) and with HCC827 TR cells (setting [3]) was greater than 1 throughout. Moreover, the “combination index (CI), Taxol first followed by Reno647” value in the test on HCC827 P cells (setting [2]) and in the test on HCC827 TR cells (setting [3]) was less than 1 each time. Besides, the “combination index (CI), Reno647 and Taxol concurrently” value in the test on HCC827 P cells (HCC827P, ratio 200:1, 6 days) was less than 1; in the test on HCC827 TR cells (HCC827TR, ratio 200:1, 6 days) it was less than 1. For the same molecule, in test [1] (Reno647:Carboplatin 1:50), the “dose reduction in combination” value is recorded as greater than 10 fold. The “median effects, two drugs combined” value in test [1] (Reno647:Carboplatin 1:50, concurrent, cell line not stated) was 0.067 µM. Moreover, the “median effects, drug alone” value in test [1] (single agent, cell line not stated) is 0.697 µM.
